Experimental data published in patent US20260297070A1, “CYCLIC [COMPOUND LEFT OUT] WRN INHIBITORS” (Nimbus Wadjet, Inc., priority 2023, published 2026).

biological target: T1, human Werner helicase (WRN-BV08, Uniprot Q14191, amino acids 517-1235 with L1074F point mutation) (Homo sapiens, UniProt Q14191, L1074F); assay: WRN (BV08) ADP-Glo Assay; assay type: biochemical; settings: 0.15 nM WRN, 5 μM ATP, 0.1 nM DNA duplex, 15 min preincubation, 60 min at 25° C., pH 7.5, 1% DMSO; read-out: ADP-Glo_hWRN_IC50
T1 construct: Uniprot Q14191, amino acids 517-1235 with L1074F point mutation; TEV-cleavable 8×His (C, cleaved yes); made in house; host or cells: Sf9 insect cells (baculovirus)
T1 sequence (Q14191 with tags, fused parts or gaps L1074F limits assumed): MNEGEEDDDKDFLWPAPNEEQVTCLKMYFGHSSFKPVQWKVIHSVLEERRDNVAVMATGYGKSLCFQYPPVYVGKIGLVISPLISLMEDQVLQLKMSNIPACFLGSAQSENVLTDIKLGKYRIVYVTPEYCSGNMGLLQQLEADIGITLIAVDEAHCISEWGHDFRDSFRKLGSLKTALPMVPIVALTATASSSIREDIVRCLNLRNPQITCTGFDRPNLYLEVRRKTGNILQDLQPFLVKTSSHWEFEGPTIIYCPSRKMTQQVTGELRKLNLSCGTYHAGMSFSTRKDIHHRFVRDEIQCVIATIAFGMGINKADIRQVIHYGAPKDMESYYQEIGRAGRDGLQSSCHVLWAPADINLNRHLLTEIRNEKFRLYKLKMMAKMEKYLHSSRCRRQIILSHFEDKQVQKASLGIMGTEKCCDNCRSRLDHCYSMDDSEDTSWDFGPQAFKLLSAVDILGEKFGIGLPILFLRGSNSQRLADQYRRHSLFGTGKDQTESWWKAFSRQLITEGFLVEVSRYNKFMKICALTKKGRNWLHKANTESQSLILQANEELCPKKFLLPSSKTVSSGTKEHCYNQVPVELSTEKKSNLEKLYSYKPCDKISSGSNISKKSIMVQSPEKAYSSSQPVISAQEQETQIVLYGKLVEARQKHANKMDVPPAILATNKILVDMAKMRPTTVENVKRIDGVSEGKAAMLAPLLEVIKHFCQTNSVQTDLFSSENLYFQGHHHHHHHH
In short: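 WRN 0.15 nM + cpd, 15 min 25 °C; add 5 μM ATP / 0.1 nM annealed DNA duplex; 60 min 25 °C; ADP-Glo stop, RLU. Buffer 20 mM Bicine pH 7.5, 1 mM MgCl2, 10 mM KCl, 1 mM TCEP. IC50, 4-parameter fit.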

IC50, 0.5 to 5 µM:
O=C(Cn1ccc(-c2ccc(F)cc2)cc1=O)N(Cc1ccncc1)C1C=CS(=O)(=O)C1 (centres unmarked) [I-147, N-(1,1-dioxido-2,3-dihydrothiophen-3-yl)-2-(4-(4-fluorophenyl)-2-oxopyridin-1(2H)-yl)-N-(pyridin-4-ylmethyl)acetamide]
O=C(Cc1ccc(-n2cccc2)cc1)N(Cc1nc(CC(F)(F)F)cs1)C1C=CS(=O)(=O)C1 (centres unmarked) [I-148, N-(1,1-dioxo-2,3-dihydro-1lambda6-thiophen-3-yl)-2-[4-(1H-pyrrol-1-yl)phenyl]-N-{[4-(2,2,2-trifluoroethyl)-1,3-thiazol-2-yl]methyl}acetamide]
O=C(Cc1ccc(-n2cccc2)cc1)N(Cc1nc2ccccc2s1)C1C=CS(=O)(=O)C1 (centres unmarked) [I-149, N-[(1,3-benzothiazol-2-yl)methyl]-N-(1,1-dioxo-2,3-dihydro-1lambda6-thiophen-3-yl)-2-[4-(1H-pyrrol-1-yl)phenyl]acetamide]
Cc1cccn1-c1ccc(CC(=O)N(Cc2ccnnc2)C2C=CS(=O)(=O)C2)c(F)c1 (centres unmarked) [I-150, N-(1,1-dioxo-2,3-dihydro-1lambda6-thiophen-3-yl)-2-[2-fluoro-4-(2-methyl-1H-pyrrol-1-yl)phenyl]-N-[(pyridazin-4-yl)methyl]acetamide]
CC(C)c1ccc(CC(=O)N(Cc2ccncc2)C2C=CS(=O)(=O)C2)c(F)c1 (centres unmarked) [I-151, N-(1,1-dioxo-2,3-dihydro-1lambda6-thiophen-3-yl)-2-[2-fluoro-4-(propan-2-yl)phenyl]-N-[(pyridin-4-yl)methyl]acetamide]
CC(C)(O)c1cc(CN(C(=O)Cc2ccc(-n3cccc3)cc2)C2C=CS(=O)(=O)C2)ccn1 (centres unmarked) [I-152, N-(1,1-dioxo-2,3-dihydro-1lambda6-thiophen-3-yl)-N-{[2-(2-hydroxypropan-2-yl)pyridin-4-yl]methyl}-2-[4-(1H-pyrrol-1-yl)phenyl]acetamide]
C#CCN(C)C(=O)c1ccc(CN(C(=O)Cc2ccc(-n3cccc3)cc2F)C2C=CS(=O)(=O)C2)cc1 (centres unmarked) [I-153, 4-{[N-(1,1-dioxo-2,3-dihydro-1lambda6-thiophen-3-yl)-2-[2-fluoro-4-(1H-pyrrol-1-yl)phenyl]acetamido]methyl}-N-methyl-N-(prop-2-yn-1-yl)benzamide]
O=C(Cc1ccc(-n2cccc2)cc1)N(Cc1nc2c(s1)CCCC2)C1C=CS(=O)(=O)C1 (centres unmarked) [I-154, N-(1,1-dioxo-2,3-dihydro-1lambda6-thiophen-3-yl)-2-[4-(1H-pyrrol-1-yl)phenyl]-N-[(4,5,6,7-tetrahydro-1,3-benzothiazol-2-yl)methyl]acetamide]
O=C(Cc1ccc(-n2cccc2)cc1)N(Cc1nc2c(s1)CCC2)C1C=CS(=O)(=O)C1 (centres unmarked) [I-155, N-({4H,5H,6H-cyclopenta[d][1,3]thiazol-2-yl}methyl)-N-(1,1-dioxo-2,3-dihydro-1lambda6-thiophen-3-yl)-2-[4-(1H-pyrrol-1-yl)phenyl]acetamide]
COc1cc(CN(C(=O)Cc2ccc(-n3cccc3)cc2)C2C=CS(=O)(=O)C2)ccn1 (centres unmarked) [I-156, N-(1,1-dioxo-2,3-dihydro-1lambda6-thiophen-3-yl)-N-[(2-methoxypyridin-4-yl)methyl]-2-[4-(1H-pyrrol-1-yl)phenyl]acetamide]
O=C(Cc1ccc(-n2cccc2)cc1)N(Cc1cccc(Br)c1)C1C=CS(=O)(=O)C1 (centres unmarked) [I-157, N-[(3-bromophenyl)methyl]-N-(1,1-dioxo-2,3-dihydro-1lambda6-thiophen-3-yl)-2-[4-(1H-pyrrol-1-yl)phenyl]acetamide]
COc1cc(CN(C(=O)Cc2ccc(-c3ccc(F)cc3)cc2)C2C=CS(=O)(=O)C2)ccn1 (centres unmarked) [I-158, N-(1,1-dioxo-2,3-dihydro-1lambda6-thiophen-3-yl)-2-{4′-fluoro-[1,1′-biphenyl]-4-yl}-N-[(2-methoxypyridin-4-yl)methyl]acetamide]
COc1cc(CN(C(=O)C(C(=O)N(C)C)c2ccc(S(F)(F)(F)(F)F)cc2)C2C=CS(=O)(=O)C2)ccn1 (centres unmarked) [I-159, N′-(1,1-dioxo-2,3-dihydro-1lambda6-thiophen-3-yl)-N′-[(2-methoxypyridin-4-yl)methyl]-N,N-dimethyl-2-[4-(pentafluoro-lambda6-sulfanyl)phenyl]propanediamide]
O=C(Cc1ccc(-n2cccc2)cc1)N(Cc1ccnc(Cl)c1)C1C=CS(=O)(=O)C1 (centres unmarked) [I-160, N-[(2-chloropyridin-4-yl)methyl]-N-(1,1-dioxo-2,3-dihydro-1lambda6-thiophen-3-yl)-2-[4-(1H-pyrrol-1-yl)phenyl]acetamide]
O=C(Cc1ccc(-n2cccc2)cc1F)N(Cc1ccncc1)C1C=CS(=O)(=O)C1 (centres unmarked) [I-161, N-(1,1-dioxo-2,3-dihydro-1lambda6-thiophen-3-yl)-2-[2-fluoro-4-(1H-pyrrol-1-yl)phenyl]-N-[(pyridin-4-yl)methyl]acetamide]
COc1cc(CN(C(=O)Cc2ccc(C3CC3)cc2)C2C=CS(=O)(=O)C2)ccn1 (centres unmarked) [I-162, 2-(4-cyclopropylphenyl)-N-(1,1-dioxo-2,3-dihydro-1lambda6-thiophen-3-yl)-N-[(2-methoxypyridin-4-yl)methyl]acetamide]
O=C(Cc1ccc(-n2cccc2)cc1)N(Cc1ccc(Br)cc1)C1C=CS(=O)(=O)C1 (centres unmarked) [I-163, N-[(4-bromophenyl)methyl]-N-(1,1-dioxo-2,3-dihydro-1lambda6-thiophen-3-yl)-2-[4-(1H-pyrrol-1-yl)phenyl]acetamide]
O=C(Cc1ccc(C2CCCCC2)cc1)N(Cc1ccncc1)C1C=CS(=O)(=O)C1 (centres unmarked) [I-164, 2-(4-cyclohexylphenyl)-N-(1,1-dioxo-2,3-dihydro-1lambda6-thiophen-3-yl)-N-[(pyridin-4-yl)methyl]acetamide]
O=C(Cc1ccc(-n2cccc2)cc1)N(Cc1nc2cnccc2s1)C1C=CS(=O)(=O)C1 (centres unmarked) [I-165, N-(1,1-dioxo-2,3-dihydro-1lambda6-thiophen-3-yl)-2-[4-(1H-pyrrol-1-yl)phenyl]-N-({[1,3]thiazolo[4,5-c]pyridin-2-yl}methyl)acetamide]
O=C(Cc1ccc(-c2cc(F)cc(F)c2)cc1)N(Cc1ccncc1)C1C=CS(=O)(=O)C1 (centres unmarked) [I-166, 2-{3′,5′-difluoro-[1,1′-biphenyl]-4-yl}-N-(1,1-dioxo-2,3-dihydro-1lambda6-thiophen-3-yl)-N-[(pyridin-4-yl)methyl]acetamide]
CC(C)OC(C(=O)N(Cc1ccnc(C(C)(C)O)c1)C1C=CS(=O)(=O)C1)c1ccc(-c2ccc(F)c(F)c2)cc1F (centres unmarked) [I-167, N-(1,1-dioxo-2,3-dihydro-1lambda6-thiophen-3-yl)-N-{[2-(2-hydroxypropan-2-yl)pyridin-4-yl]methyl}-2-(propan-2-yloxy)-2-{3,3′,4′-trifluoro-[1,1′-biphenyl]-4-yl}acetamide]
COc1cc(CN(C(=O)Cc2c(F)cc(-c3ccc(F)cc3)cc2F)C2C=CS(=O)(=O)C2)ccn1 (centres unmarked) [I-168, N-(1,1-dioxo-2,3-dihydro-1lambda6-thiophen-3-yl)-N-[(2-methoxypyridin-4-yl)methyl]-2-{3,4′,5-trifluoro-[1,1′-biphenyl]-4-yl}acetamide]
CC(O)c1cc(CN(C(=O)Cc2ccc(-n3cccc3)cc2)C2C=CS(=O)(=O)C2)ccn1 (centres unmarked) [I-169, N-(1,1-dioxo-2,3-dihydro-1lambda6-thiophen-3-yl)-N-{[2-(1-hydroxyethyl)pyridin-4-yl]methyl}-2-[4-(1H-pyrrol-1-yl)phenyl]acetamide]
O=C(Cc1ccc(-n2cccc2)cc1)N(Cc1ccnc2ccccc12)C1C=CS(=O)(=O)C1 (centres unmarked) [I-170, N-(1,1-dioxo-2,3-dihydro-1lambda6-thiophen-3-yl)-2-[4-(1H-pyrrol-1-yl)phenyl]-N-[(quinolin-4-yl)methyl]acetamide]
COc1cc(CN(C(=O)Cc2ccc(-n3c(C)ccc3C)cc2F)C2C=CS(=O)(=O)C2)ccn1 (centres unmarked) [I-171, 2-[4-(2,5-dimethyl-1H-pyrrol-1-yl)-2-fluorophenyl]-N-(1,1-dioxo-2,3-dihydro-1lambda6-thiophen-3-yl)-N-[(2-methoxypyridin-4-yl)methyl]acetamide]
COc1cc(CN(C(=O)Cc2ncc(-c3ccc(F)cc3)cc2F)C2C=CS(=O)(=O)C2)ccn1 (centres unmarked) [I-172, N-(1,1-dioxo-2,3-dihydro-1lambda6-thiophen-3-yl)-2-[3-fluoro-5-(4-fluorophenyl)pyridin-2-yl]-N-[(2-methoxypyridin-4-yl)methyl]acetamide]
Cc1cccn1-c1ccc(CC(=O)N(Cc2ccn(C)c(=O)c2)C2C=CS(=O)(=O)C2)c(F)c1 (centres unmarked) [I-173, N-(1,1-dioxo-2,3-dihydro-1lambda6-thiophen-3-yl)-2-[2-fluoro-4-(2-methyl-1H-pyrrol-1-yl)phenyl]-N-[(1-methyl-2-oxo-1,2-dihydropyridin-4-yl)methyl]acetamide]
Cc1cccn1-c1ccc(C(C(=O)N(C)C)C(=O)N(Cc2ccnc(C(C)(C)O)c2)C2C=CS(=O)(=O)C2)c(F)c1 (centres unmarked) [I-174, N-(1,1-dioxo-2,3-dihydro-1lambda6-thiophen-3-yl)-2-[2-fluoro-4-(2-methyl-1H-pyrrol-1-yl)phenyl]-N-{[2-(2-hydroxypropan-2-yl)pyridin-4-yl]methyl}-N′,N′-dimethylpropanediamide]
COc1cc(CN(C(=O)Cc2ccc(-c3ccc(F)cc3)cn2)C2C=CS(=O)(=O)C2)ccn1 (centres unmarked) [I-175, N-(1,1-dioxo-2,3-dihydro-1lambda6-thiophen-3-yl)-2-[5-(4-fluorophenyl)pyridin-2-yl]-N-[(2-methoxypyridin-4-yl)methyl]acetamide]
